The results in this text go back to patent US12521393B2, “Cytotoxicity targeting chimeras for CCR2-expressing cells” (GLAXOSMITHKLINE INTELLECTUAL PROPERTY DEVELOPMENT LIMITED, priority 2021, dated 2026).

Test [1] concerns the target anti-cotinine antibody (SEQ ID NO: 11/12, rabbit variable region with human IgG1 Fc DE mutation). The test can be described thus: SPR binding of anti-cotinine antibody to ARM compounds, Biacore T200, 37° C. (Example 202). Conditions: SPR Biacore T200, 37° C., pH 7.4, antibody SEQ ID NO: 11/12 captured on protein A; Kd in molar. The procedure:
Anti-cotinine antibodies having a heavy chain sequence of SEQ ID NO: 11 and a light chain sequence of SEQ ID NO: 12 (rabbit variable region with human IgG1 Fc domain containing a DE mutation (S239D/1332E)) were captured on one or more flow cells of a protein A sensor chip (Cytiva) using a Biacore T200 while reserving flow cell 1 as a reference. Following capture, a 3000 second wait step was included to reduce drift during compound analysis. ARM compounds of Formula (I) were then injected at 100 μL/min with 200 and 2000 second association and dissociation times. The entire experiment was run at 37° C. with running buffer containing 10 mM HEPES pH 7.4, 150 mM NaCl, 0.005% P20 and 1% DMSO. ARM compounds of Formula (I) were titrated with a top concentration of 200 nM using a 3-fold 5-point dilution series and a corresponding 5-injection buffer cycle was run for blank subtraction. Data were double referenced by subtracting the response of the reference flow cell from that of the antibody-containing flow cell and subsequently subtracting the referenced blank sensorgrams. Following compound analysis, the surface was regenerated using a 30 second injection of pH 1.5 glycine at a flow rate of 30 μL/min after which antibody was re-captured. The experiment was run using Biacore T200 control software and evaluated using Biacore T200 Evaluation software. Curves were fit with a 1:1 kinetic binding model to obtain kon (1/Ms), koff(1/s), Kd (M) determined as koff/kon, and residence time determined as 1/koff (s).
Anti-cotinine antibody was tested for binding to ARMs compounds of Formula (I) of the invention in the above assay in or more experimental runs and the results are shown in Table 5 below. Affinity is reported as a pKd value. The pKd value is the negative log of the Kd value, wherein the Kd value is the dissociation constant measured in molar (M) as noted above. For compounds tested in more than one experimental run, the pKd value is reported as an average
Background: Surface plasmon resonance follows binding to a sensor surface in real time, without labels.

Test [2] concerns endogenous target monocytes in human PBMC. Briefly: PBMC ex vivo monocyte depletion flow cytometry assay (Example 200). To be noted: with anti-cotinine antibody (SEQ ID NO: 11/12), 18-24 hours, EC50 in molar, read-out: Ex Vivo Depletion Assay pEC50 (converted). Format: cell-based. Summed up:
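Monocyte depletion is reported as pEC50, averaged or given individually across runs, and read by flow cytometry staining CD45, CD14 and CD4 with a viability dye. Compounds, diluted four-fold over 11 points from 1 mM DMSO stocks, were combined with 30 μg/mL Fc-enhanced anti-cotinine antibody and human PBMC, then incubated 18-24 h at 37° C.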
On the technique in general: A flow cytometer gives signals particle by particle.

For the compound `CC(C)N(C)[C@@H]1CC[C@H](N2CC[C@H](Nc3ncnc4ccc(C(F)(F)F)cc34)C2=O)[C@H](NC(=O)COCCNC(=O)CCOCCOCCNC(=O)CCNC(=O)[C@H]2CC(=O)N(C)[C@@H]2c2cccnc2)C1` [Example 50, (2S,3S)-N-(1-(((1R,2S,5R)-5-(Isopropyl(methyl)amino)-2-((S)-2-oxo-3-((6-(trifluromethyl)quinazolin-4-yl)amino)pyrrolidin-1-yl)cyclohexyl)amino)-1,7,17-trioxo-3,10,13-trioxa-6,16-diazanonadecan-19-yl)-1-methyl-5-oxo-2-(pyridin-3-yl)pyrrolidine-3-carboxamide], the “pKd of Antibody for ARM Compound of Formula (I)” value (from here on “pKd of Antibody”) in test [1] is given as 9.1485. The EC50 in test [2] is 0.126 nM.

`CC(C)N(C)[C@@H]1CC[C@H](N2CC[C@H](Nc3ncnc4ccc(C(F)(F)F)cc34)C2=O)[C@H](NC(=O)[C@H]2C[C@H](NC(=O)CCOC[C@H]3CC[C@H](COCCNC(=O)[C@H]4CC(=O)N(C)[C@@H]4c4cccnc4)CC3)C2)C1` [Example 54, (2S,3S)-N-(2-(((1R,4S)-4-((3-(((1R,3R)-3-(((1R,2S,5R)-5-(Isopropyl(methyl)amino)-2-((S)-2-oxo-3-((6-(trifluoromethyl)quinazolin-4-yl)amino)pyrrolidin-1-yl)cyclohexyl)carbamoyl)cyclobutyl)amino)-3-oxopropoxy)methyl)cyclohexyl)methoxy)ethyl)-1-methyl-5-oxo-2-(pyridin-3-yl)pyrrolidine-3-carboxamide]: in test [1], the “pKd of Antibody” value is recorded as 9.5515. For the same compound, in test [2], the EC50 is 1 nM.

For `CN1C(=O)C[C@H](C(=O)NCC(=O)NCCOCCOCCC(=O)N[C@H]2CC[C@@H](C(=O)N[C@@H]3C[C@H](NC(C)(C)C)CC[C@@H]3N3CC[C@H](Nc4ncnc5ccc(C(F)(F)F)cc45)C3=O)CC2)[C@H]1c1cccnc1` [Example 65, (2S,3S)-N-(2-((2-(2-(3-(((1S,4s)-4-(((1R,2S,5R)-5-(tert-Butylamino)-2-((S)-2-oxo-3-((6-(trifluoromethyl)quinazolin-4-yl)amino)pyrrolidin-1-yl)cyclohexyl)carbamoyl)cyclohexyl)amino)-3-oxopropoxy)ethoxy)ethyl)amino)-2-oxoethyl)-1-methyl-5-oxo-2-(pyridin-3-yl)pyrrolidine-3-carboxamide], the “pKd of Antibody” value in test [1] came out at 8.648. For the same compound, the EC50 in test [2] is 100000 nM.

Turning to `CC(C)N(C)[C@@H]1CC[C@H](N2CC[C@H](Nc3ncnc4ccc(C(F)(F)F)cc34)C2=O)[C@H](NC(=O)[C@H]2C[C@@H](NC(=O)CCOCCOCCNC(=O)CNC(=O)[C@H]3CC(=O)N(C)[C@@H]3c3cccnc3)C2)C1` [Example 66, (2S,3S)-N-(2-((2-(2-(3-(((1S,3s)-3-(((1R,2S,5R)-5-(Isopropyl(methyl)amino)-2-((S)-2-oxo-3-((6-(trifluoromethyl)quinazolin-4-yl)amino)pyrrolidin-1-yl)cyclohexyl)carbamoyl)cyclobutyl)amino)-3-oxopropoxy)ethoxy)ethyl)amino)-2-oxoethyl)-1-methyl-5-oxo-2-(pyridin-3-yl)pyrrolidine-3-carboxamide], in test [1], the “pKd of Antibody” value amounted to 8.649. Moreover, in test [2], the EC50 was 0.631 nM.

Turning to `CC(C)N(C)[C@@H]1CC[C@H](N2CC[C@H](Nc3ncnc4ccc(C(F)(F)F)cc34)C2=O)[C@H](NC(=O)COCCOCCNC(=O)COCCNC(=O)CCNC(=O)[C@H]2CC(=O)N(C)[C@@H]2c2cccnc2)C1` [Example 74, (2S,3S)-N-(1-(((1R,2S,5R)-5-(isopropyl(methyl)amino)-2-((S)-2-oxo-3-((6-(trifluoromethyl)quinazolin-4-yl)amino)pyrrolidin-1-yl)cyclohexyl)amino)-1,10,16-trioxo-3,6,12-trioxa-9,15-diazaoctadecan-18-yl)-1-methyl-5-oxo-2-(pyridin-3-yl)pyrrolidine-3-carboxamide], in test [1], the “pKd of Antibody” value was found to be 9.091. In test [2], the EC50 was 100000 nM.
